# Test results: patent US9943522B2, “Use of cathepsin K inhibition for the treatment and/or prophylaxis of pulmonary hypertension and/or heart failure” (BAYER INTELLECTUAL PROPERTY GMBH, priority 2011, dated 2018)
# Tests used:
# [1] = system: LTBP2; experiment: Relative expression of LTBP2 in heart right ventricle, hypoxia-induced pulmonary hypertension model (TaqMan RT-PCR); format: in vivo, guinea pig; details: hypoxia 28 days, Odanacatib infusion, compared to placebo group; FIG. 3
# Method: (§1) To analyse the disease state of the animals and determine the efficacy of Odanacatib treatment, the expression of marker genes were performed. […] Due to the known correlation of increased ANP levels and disease stage in heart failure patients and animal models, the increased expression of […] seems to be correlated with pulmonary hypertension.
# (§2) Guinea pig or dog tissues were pulverized by grinding with liquid nitrogen. Total RNA was extracted, DNase I digestion was performed to remove residual genomic DNA and the RNA were reverse transcribed using random hexomer primers. Quantitative TaqMan RT-PCR analysis was performed using the Applied Biosystems PRISM 7900 sequence detection system. […] Results were normalized to L32 (dog) or b-actin (guinea pig) controls, and relative expression was calculated according to the following formula: relative expression=2(20-(CT(probe)-CT(L32/b-actin))). […]
# For relative quantitation of the mRNA distribution of LTBP2, total RNA from each sample was first reverse transcribed. […]
# For relative quantitation of the distribution of LTBP2 mRNA the Applied Bioscience ABI 7900HT Sequence Detection system was used according to the manufacturer's specifications and protocols.
# PCR reactions were set up to quantitate LTBP2 and the housekeeping gene b-actin. […]
# [2] = system: CTSK; experiment: Relative expression of CTSK in heart right ventricle, hypoxia-induced pulmonary hypertension model (TaqMan RT-PCR); format: in vivo, guinea pig; details: hypoxia 28 days, Odanacatib infusion, compared to placebo group; FIG. 4
# Method: as §1, §2
# (§3) Male Dunkin Hartley guinea pigs weighing approximately 250 g were randomized to three different treatment groups (n=7-8 animals/group; control+placebo, hypoxia+placebo, hypoxia+Odanacatib). […] The heart was dissected, and the ratio of the right ventricle to left ventricle plus septum weight (RV/LV+S) was calculated as an index of right ventricular hypertrophy. The right ventricle was snap-frozen on dry ice for RNA extraction and quantitative real-time polymerase chain reaction. […]
# [3] = system: ANP; experiment: Relative expression of ANP in heart right ventricle, hypoxia-induced pulmonary hypertension model (TaqMan RT-PCR); format: in vivo, guinea pig; details: hypoxia 28 days, Odanacatib infusion, compared to placebo group; FIG. 2
# Method: as §1, §2, §3
# [4] = system: hypoxia-induced pulmonary hypertension in the guinea pig; experiment: Hypoxia-induced pulmonary hypertension in the guinea pig: right ventricular hypertrophy (RV/LV+S); format: in vivo
# Description: Chronic hypoxia is a literature described and accepted animal model for pulmonary hypertension and is described for different species (Am J Physiol Lung Cell Mol Physiol 297: L1013-L1032, 2009; J Pharmacol Sci 107, 8-14 (2008); Pharmacology & Therapeutics 92 (2001) 1-20). Acute hypoxia increases pulmonary arterial pressure through pulmonary arterial constriction. Chronic hypoxia causes more severe pulmonary hypertension through vascular architectural changes and an increase of hematocrit (Hct) in the blood. […]
# The CTSK inhibitor Odanacatib was tested in a guinea pig model for pulmonary hypertension as described in the examples section. […] The heart was dissected, and the ratio of the right ventricle to left ventricle plus septum weight (RV/LV+S) was calculated as an index of right ventricular hypertrophy. The right ventricle was snap-frozen on dry ice for RNA extraction and quantitative real-time polymerase chain reaction. […]
# as §3, with “hypertrophy.” for “hypertrophy. The right ventricle was snap-frozen on dry ice for RNA extraction and quantitative real-time polymerase chain reaction.”
structure (smiles),measurement,setting,value
CC(C)(F)C[C@H](N[C@@H](c1ccc(-c2ccc(S(C)(=O)=O)cc2)cc1)C(F)(F)F)C(=O)NC1(C#N)CC1 [Odanacatib],expression of LTBP2 in heart (right ventricle) under hypoxia,[1],markedly decreased expression
same,expression of CTSK in heart (right ventricle) under hypoxia,[2],markedly decreased expression
same,expression of ANP in heart (right ventricle) under hypoxia,[3],markedly decreased expression
same,ratio of the right ventricle to left ventricle plus septum weight (RV/LV+S),"[4]; Mean±SEM, normobaric hypoxia (10% O2) 28 days, continuous infusion by osmotic minipump day 0-28, hypoxic placebo 0.37±0.01, normoxic control 0.28±0.01",0.30±0.01
same,right ventricle weight,"[4]; hypoxia-induced pulmonary hypertension animals, compared to placebo treated animals",reduction of right ventricle weight
